Measured values reported in PubChem BioAssay AID2060604 (Molecular Pharmacology Branch, DTP, NCI, 2025).
Blank lines part the entries; values can stand above or below the molecule they belong to.

Tested on: 379773-124-R-J2-PDC complex spheroids, viability % test/control
Test: Anticancer human tumor 379773-124-R-J2-PDC patient-derived endometrial carcinoma cell line growth inhibition [CLK]
Conditions: for IC50: curve of first compound; for viability, T/C: stronger effect = lower value
Method in brief: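 Multi-cell-type spheroids combined patient-derived tumor cells with HUVEC endothelial cells and human mesenchymal stem cells. Paired agents were dosed in half-log steps down from about clinical Cmax, or from 10 microM where Cmax was unknown.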

[1] = second compound 0.0316 µM, first compound 0.0316 µM
[2] = second compound 0.0316 µM, first compound 0.1 µM
[3] = second compound 0.0316 µM, first compound 0.316 µM
[4] = second compound 0.0316 µM, first compound 1 µM
[5] = second compound 0.0316 µM, first compound 3.16 µM
[6] = second compound 0.0316 µM, first compound 10 µM
[7] = second compound 0.1 µM, first compound 0.0316 µM
[8] = second compound 0.1 µM, first compound 0.1 µM
[9] = second compound 0.1 µM, first compound 0.316 µM
[10] = second compound 0.1 µM, first compound 1 µM
[11] = second compound 0.1 µM, first compound 3.16 µM
[12] = second compound 0.1 µM, first compound 10 µM
[13] = second compound 0.316 µM, first compound 0.0316 µM
[14] = second compound 0.316 µM, first compound 0.1 µM
[15] = second compound 0.316 µM, first compound 0.316 µM
[16] = second compound 0.316 µM, first compound 1 µM
[17] = second compound 0.316 µM, first compound 3.16 µM
[18] = second compound 0.316 µM, first compound 10 µM
[19] = second compound 1 µM, first compound 0.0316 µM
[20] = second compound 1 µM, first compound 0.1 µM
[21] = second compound 1 µM, first compound 0.316 µM
[22] = second compound 1 µM, first compound 1 µM
[23] = second compound 1 µM, first compound 3.16 µM
[24] = second compound 1 µM, first compound 10 µM
[25] = second compound 3.16 µM, first compound 0.0316 µM
[26] = second compound 3.16 µM, first compound 0.1 µM
[27] = second compound 3.16 µM, first compound 0.316 µM
[28] = second compound 3.16 µM, first compound 1 µM
[29] = second compound 3.16 µM, first compound 3.16 µM
[30] = second compound 3.16 µM, first compound 10 µM
[31] = second compound 10 µM, first compound 0.0316 µM
[32] = second compound 10 µM, first compound 0.1 µM
[33] = second compound 10 µM, first compound 0.316 µM
[34] = second compound 10 µM, first compound 1 µM
[35] = second compound 10 µM, first compound 3.16 µM
[36] = second compound 10 µM, first compound 10 µM
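Note: compound exposure lasted seven days before the viability readout.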
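Throughout, for viability, T/C: 100% = DMSO vehicle control wells.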

IC50 (second compound 0.0316 µM): > 10000 nM
IC50 (second compound 0.1 µM): < 31.6 nM
IC50 (second compound 0.316 µM): < 31.6 nM
IC50 (second compound 1 µM): < 31.6 nM
IC50 (second compound 3.16 µM): < 31.6 nM
IC50 (second compound 10 µM): < 31.6 nM
Compound: C=CC(=O)N1CCN(c2nc(=O)n(-c3c(C)ccnc3C(C)C)c3nc(-c4c(O)cccc4F)c(F)cc23)C(C)C1 (stereo unspecified) + CNC(=O)c1ccc(Nc2nc(OC3CCCC3)c3c(-c4ccc5nc(C)oc5c4)c[nH]c3n2)c(OC)c1
viability, T/C [1]: 74.3%
viability, T/C [2]: 80%
viability, T/C [3]: 76.1%
viability, T/C [4]: 76.5%
viability, T/C [5]: 76.5%
viability, T/C [6]: 71.3%
viability, T/C [7]: 34.9%
viability, T/C [8]: 46.9%
viability, T/C [9]: 42.7%
viability, T/C [10]: 39.2%
viability, T/C [11]: 36.6%
viability, T/C [12]: 38.3%
viability, T/C [13]: 43.6%
viability, T/C [14]: 33%
viability, T/C [15]: 41.9%
viability, T/C [16]: 41.6%
viability, T/C [17]: 37%
viability, T/C [18]: 38.5%
viability, T/C [19]: 34.6%
viability, T/C [20]: 33.1%
viability, T/C [21]: 45%
viability, T/C [22]: 34.5%
viability, T/C [23]: 32.6%
viability, T/C [24]: 28.4%
viability, T/C [25]: 31.1%
viability, T/C [26]: 34.5%
viability, T/C [27]: 34.9%
viability, T/C [28]: 28.1%
viability, T/C [29]: 29%
viability, T/C [30]: 27.7%
viability, T/C [31]: 27.8%
viability, T/C [32]: 33.1%
viability, T/C [33]: 29.2%
viability, T/C [34]: 28.2%
viability, T/C [35]: 40%
viability, T/C [36]: 18.4%

Compound: COc1cccc2c1C(=O)c1c(O)c3c(c(O)c1C2=O)CC(O)(C(=O)CO)CC3OC1CC(N)C(O)C(C)O1 (stereo unspecified) + CN1CCN(c2cc(C(=O)Nc3cc4cc(-c5cnn(C)c5)ccc4cn3)ccn2)CC1
IC50 (second compound 0.0316 µM): < 31.6 nM
IC50 (second compound 0.1 µM): < 31.6 nM
IC50 (second compound 0.316 µM): < 31.6 nM
IC50 (second compound 1 µM): < 31.6 nM
IC50 (second compound 3.16 µM): < 31.6 nM
IC50 (second compound 10 µM): < 31.6 nM
viability, T/C [1]: 41%
viability, T/C [2]: 11.9%
viability, T/C [3]: 5.69%
viability, T/C [4]: 3.76%
viability, T/C [5]: 0.3%
viability, T/C [6]: 0.91%
viability, T/C [7]: 30.5%
viability, T/C [8]: 10.3%
viability, T/C [9]: 9.14%
viability, T/C [10]: 3.16%
viability, T/C [11]: 0.33%
viability, T/C [12]: 0.09%
viability, T/C [13]: 8.53%
viability, T/C [14]: 8.1%
viability, T/C [15]: 3.09%
viability, T/C [16]: 2.71%
viability, T/C [17]: 0.12%
viability, T/C [18]: 0.21%
viability, T/C [19]: 0.13%
viability, T/C [20]: 0.1%
viability, T/C [21]: 0.78%
viability, T/C [22]: 1.01%
viability, T/C [23]: 0.06%
viability, T/C [24]: 0.16%
viability, T/C [25]: 2.21%
viability, T/C [26]: 0.27%
viability, T/C [27]: 1.48%
viability, T/C [28]: 0.04%
viability, T/C [29]: 0.07%
viability, T/C [30]: 0.17%
viability, T/C [31]: 1.64%
viability, T/C [32]: 0.35%
viability, T/C [33]: 0.12%
viability, T/C [34]: 2.01%
viability, T/C [35]: 0.31%
viability, T/C [36]: 0.12%

Compound: C=C(F)C(=O)N1CCN(c2nc(OCC3CCCN3C)nc3c2CCN(c2cccc4cccc(Cl)c24)C3)CC1CC#N (stereo unspecified) + CN1CCN(c2cc(C(=O)Nc3cc4cc(-c5cnn(C)c5)ccc4cn3)ccn2)CC1
IC50 (second compound 0.0316 µM): 4620 nM
IC50 (second compound 0.1 µM): 2700 nM
IC50 (second compound 0.316 µM): < 31.6 nM
IC50 (second compound 1 µM): < 31.6 nM
IC50 (second compound 3.16 µM): < 31.6 nM
IC50 (second compound 10 µM): < 31.6 nM
viability, T/C [1]: 87.9%
viability, T/C [2]: 86%
viability, T/C [3]: 86%
viability, T/C [4]: 88.7%
viability, T/C [5]: 73.9%
viability, T/C [6]: 1.28%
viability, T/C [7]: 85.8%
viability, T/C [8]: 72.8%
viability, T/C [9]: 90.9%
viability, T/C [10]: 79.5%
viability, T/C [11]: 45.3%
viability, T/C [12]: 1%
viability, T/C [13]: 28.3%
viability, T/C [14]: 36.7%
viability, T/C [15]: 31.8%
viability, T/C [16]: 37.5%
viability, T/C [17]: 13.6%
viability, T/C [18]: 0.93%
viability, T/C [19]: 0.49%
viability, T/C [20]: 0.17%
viability, T/C [21]: 0.3%
viability, T/C [22]: 1.49%
viability, T/C [23]: 0.88%
viability, T/C [24]: 0.75%
viability, T/C [25]: 1.35%
viability, T/C [26]: 0.14%
viability, T/C [27]: 2.05%
viability, T/C [28]: 0.84%
viability, T/C [29]: 1.24%
viability, T/C [30]: 0.11%
viability, T/C [31]: 0.66%
viability, T/C [32]: 1.65%
viability, T/C [33]: 0.21%
viability, T/C [34]: 0.22%
viability, T/C [35]: 0.2%
viability, T/C [36]: 0.65%
